Assay results as given in PMC7243365 (Antiviral research, 2020).

How the values were obtained:
[1] = test system: his-tagged HA (H5) protein binding to A549 cells; design: species or system influenza A virus H5; details: for IC50: read-out: IC50 HA (H5) protein binding to A549 cells
HIV/H5N1 pseudovirus [2] = assay type: cell-based, influenza A virus A/Goose/Qinghai/59/05 (H5N1); details: read-out: IC50 HIV/H5N1
[3] = test system: VN04Low (H5N1), A/Vietnam/1203/04; assay type: cell-based, influenza A virus H5N1
A/HongKong/2/68 (H3N2) = assay type: cell-based, influenza A virus H3N2
[4] = test system: A/rhea/North Carolina/39482/93 (H7N1); assay type: cell-based, influenza A virus H7N1
[5] = test system: H1N1-GFP (A/Puerto Rico/8/34, NS1-GFP); assay type: cell-based, influenza A virus H1N1; details: for IC50: read-out: IC50 anti-H1N1
[6] = test system: A/Puerto Rico/8/34 (H1N1); assay type: cell-based, influenza A virus H1N1; details: read-out: IC50 H1N1 plaque reduction
VN04Low (H5N1) = assay type: cell-based, influenza A virus H5N1; details: read-out: IC50 H5N1 plaque reduction
HIV/H5N1 pseudovirus [7] = assay type: cell-based, influenza A virus H5N1; details: 10 µM
[8] = test system: H1N1-GFP (A/Puerto Rico/8/34, NS1-GFP); assay type: cell-based, influenza A virus H1N1
[9] = test system: HIV/H5N1 pseudovirus HA-mediated hemolysis; details: read-out: IC50 hemolysis inhibition; pH 5
A549 cells = test: Cell viability assay; details: 48 h, CellTiter-Glo
[10] = test system: A/Puerto Rico/8/34 (H1N1); details: oral administration; ref van Dongen et al., 2019; cited from earlier work

CC(=O)N[C@H]1[C@H]([C@H](O)[C@H](O)CO)O[C@@](O[C@H]2[C@@H](O)[C@@H](CO)O[C@@H](O[C@H]3[C@H](O)[C@@H](O)C(O)O[C@@H]3CO)[C@@H]2O)(C(=O)O)C[C@@H]1O (stereo partly shown) [2,3-sialyllactose]
inhibition of HA (H5) protein binding at 9 mM [1]: inhibited protein binding completely | IC50 [1]: 1.8 mM

CC(=O)N[C@H]1[C@H]([C@H](O)[C@H](O)CO)O[C@@](OC[C@H]2O[C@@H](O[C@H]3[C@H](O)[C@@H](O)C(O)O[C@@H]3CO)[C@H](O)[C@@H](O)[C@H]2O)(C(=O)O)C[C@@H]1O (stereo partly shown) [2,6-sialyllactose]
inhibition of HA (H5) protein binding at 27 mM [1]: 47% | IC50 [1]: 29.5 mM

CC(C)N1CCC(NC(=O)c2ccc(Cl)cc2Cl)CC1 [CBS1116, 2,4-dichloro-N-(1-isopropyl-4-piperidinyl) benzamide]
IC50 (HIV/H5N1 pseudovirus [2]): 3.9 µM | inhibitory activity against VN04Low strain [3]: inhibitory activity against VN04Low strain in a concentration-dependent manner | inhibition against H3N2 (A/HongKong/2/68 (H3N2)): no inhibition | inhibition against H7N1 [4]: no inhibition | H1N1-GFP infection at 5 μM [5]: completely blocked | concentration at which significant inhibition of H1N1 was observed [5]: 5 µM | IC50 [5]: 400 nM | IC50 [6]: 400 nM | IC50 (VN04Low (H5N1)): 13.8 µM | inhibition of HIV/H5N1 infection, added at 0h (HIV/H5N1 pseudovirus [7]): ~ 99% | inhibition of HIV/H5N1 infection, added at +1h (HIV/H5N1 pseudovirus [7]): 75% | inhibition of HIV/H5N1 infection, added at +2h (HIV/H5N1 pseudovirus [7]): 41% | inhibition of HIV/H5N1 infection, added at -1h (HIV/H5N1 pseudovirus [7]): no inhibition | cells infected by H1N1-GFP, added at 0h [8]: 0% | cells infected by H1N1-GFP, added at +1h [8]: 17% | cells infected by H1N1-GFP, added at +2h [8]: 26% | cells infected by H1N1-GFP, added at +3h [8]: 33% | cells infected by H1N1-GFP, added at -1h [8]: 38% | HA protein still bound to the cells [1]: 100% | cell toxicity to MDCK cells (MDCK cells): no cell toxicity | IC50 [9]: 6 µM

CC(C)N1CCC(NC(=O)c2c(Cl)cccc2Cl)CC1 [CBS1117]
IC50 [5]: 70 nM | CC50 (A549 cells): 274 µM

CC(=O)Nc1ccc2oc(-c3ccnc(C(=O)N4CCN([C@H](c5ccccc5)c5nnn(C)n5)CC4)c3)nc2c1 [JNJ4796]
protection of mice against H1N1 challenge [10]: protects mice
